Series [1] in a line: ABTS radical scavenging assay. The format is biochemical. As to conditions: for ABTS, mean±SD / ABTS: supplement tables. The protocol: The ABTS radical scavenging activity of the sample was measured using a method adapted from Mirzaei et al.. The ABTS radical was generated by mixing 7 mM ABTS with 2.45 mM potassium persulfate in a 1:1 ratio and incubating the mixture in the dark at room temperature for 12 to 16 h. The resulting solution was then diluted to achieve an absorbance of 0.74 ± 0.03 at 734 nm, using deionized water for adjustments. Next, 10 μL of the sample was added to 190 μL of the ABTS solution. The mixture was incubated in the dark for 7 min, after which the absorbance was measured at 734 nm. The ABTS radical scavenging activity (%) was calculated using the following equation (2):
ABTSradicalscavengingactivity%=Acontrol–Asample/Acontrol×100 (2)
In this equation, Acontrol refers to the absorbance of the control solution (which contains all reagents except the test samples), while Asample refers to the absorbance of the mixture containing the sample and the ABTS solution. To determine the Trolox equivalent antioxidant capacity (TEAC), a Trolox standard curve was used, and the results were expressed as millimoles of Trolox equivalents per milligram of protein (mM TE/mg protein).

The subject of the next series is RAW 264.7. As to the kind of experiment: Cytotoxicity assessment (MTT). In kind it is cell-based, Murine. The following applies: peptide 10 µg/mL, 72 h; for Cell viability, mean±SD: relative to untreated cells. As to the method: Murine macrophage cells (RAW 264.7; ATCC TIB-71™) were cultured in Dulbecco’s Modified Eagle’s Medium (DMEM) that was supplemented with 10% heat-inactivated fetal bovine serum (FBS) and 1% antibiotic solution. Colorectal adenocarcinoma cells (CaCo-2; ATCC HTB 37™) were cultured in Eagle’s Minimum Essential Medium (EMEM), also supplemented with 10% heat-inactivated FBS and 1% antibiotic solution. Both cell types were maintained in a humidified incubator with 5% CO2. The cell culture medium was refreshed every three days.
Cytotoxicity assessment was performed following the method described by Yang et al., with slight modifications. RAW 264.7 was seeded with 1 x 10^5 cells in a 96-well plate with an appropriate cell culture medium. After allowing the cells to attach, the medium was replaced with a fresh cell culture medium containing the peptide samples at a concentration of 10 µg/mL. The treated cells were incubated for an additional 72 h. At the designated time, fresh medium was added, which included 3-(4,5-dimethylthiazol-2-yl)-2,5-diphenyltetrazolium bromide (MTT) at a concentration of 0.5 mg/mL. After 3 h, formazan crystals were observed. The medium was then removed, and the crystals were dissolved in 100% dimethyl sulfoxide (DMSO). A microplate reader (Synergy HTX; Biotek, Multi-Mode Reader, Winooski, VT, USA) was utilized to measure the absorbance at 570 nm (measurement wavelength) and 630 nm (reference wavelength). The percentage of cell viability was calculated relative to untreated cells using the following equation (5):
Cellviability%=ODtreatment–ODblank/ODuntreated–ODblank×100 (5)
Where ODtreatment is the absorbance of the treated sample, ODuntreated is the absorbance of the untreated sample, and ODblank is the absorbance from wells without treated and untreated samples.

For “DAENKENVEE [P18, synthesized peptide identified from jellyfish fraction PUR20C]”, the “ABTS, mean±SD” value in series [1] (mean ± SD, n = 3) came out at 6.05 TE/mg protein. The ABTS was 5.71 TE/mg protein in series [1] (replicate 1), 5.51 TE/mg protein in series [1] (replicate 2) and 6.91 TE/mg protein in series [1] (replicate 3). The “Cell viability, mean±SD” value in the series on RAW 264.7 (n = 3, SD) is 89.16%. Further, the Cell viability with RAW 264.7 (replicate 1) came to 86.29%; in the series with RAW 264.7 (replicate 2) it was 87.17%; in the series on RAW 264.7 (replicate 3), 94.02%.
“EIDKLPPESRP [P7, synthesized peptide identified from jellyfish fraction PUR20C]”: in series [1] (mean ± SD, n = 3), the “ABTS, mean±SD” value amounted to 1.64 TE/mg protein. Also, the figures for the ABTS in series [1] (replicate 1), in series [1] (replicate 2) and in series [1] (replicate 3) were 1.71 TE/mg protein, 1.71 TE/mg protein and 1.50 TE/mg protein, respectively. Moreover, the “Cell viability, mean±SD” value in the series with RAW 264.7 (n = 3, SD) is 81.60%. Also, the Cell viability with RAW 264.7 (replicate 1) is 81.72%; in the series with RAW 264.7 (replicate 2), 81.89%; in the series on RAW 264.7 (replicate 3), 81.19%.
On to “EQIYPMGEGDEL [P4, synthesized peptide identified from jellyfish fraction PUR20C]”, for which the “ABTS, mean±SD” value in series [1] (mean ± SD, n = 3) is reported as 103.41±1.20^F TE/mg protein. The ABTS came to 103.28 TE/mg protein in series [1] (replicate 1), 102.27 TE/mg protein in series [1] (replicate 2) and 104.68 TE/mg protein in series [1] (replicate 3). Moreover, the “Cell viability, mean±SD” value in the series with RAW 264.7 (n = 3, SD) came to 82.77±0.92%. Further, the Cell viability is 83.12% in the series on RAW 264.7 (replicate 1), 83.47% in the series with RAW 264.7 (replicate 2) and 81.72% in the series on RAW 264.7 (replicate 3).
“GKNCGETVWE [P9, synthesized peptide identified from jellyfish fraction PUR20C]”: in series [1] (mean ± SD, n = 3), the “ABTS, mean±SD” value is listed as 103.21±2.27^F TE/mg protein. The ABTS in series [1] (replicate 1) is on record as 105.08 TE/mg protein; in series [1] (replicate 2), 100.67 TE/mg protein; in series [1] (replicate 3), 103.88 TE/mg protein. Besides, in the series on RAW 264.7 (n = 3, SD), the “Cell viability, mean±SD” value is 87.34%. The Cell viability in the series on RAW 264.7 (replicate 1) was found to be 87.34%; in the series with RAW 264.7 (replicate 2), 86.26%; in the series with RAW 264.7 (replicate 3), 88.40%.
For “HSVLTASYRN [P5, synthesized peptide identified from jellyfish fraction PUR20C]”, in series [1] (mean ± SD, n = 3), the “ABTS, mean±SD” value is on record as 123.24±0.75^C TE/mg protein. The figures for the ABTS in series [1] (replicate 1), in series [1] (replicate 2) and in series [1] (replicate 3) were 124.11 TE/mg protein, 122.71 TE/mg protein and 122.91 TE/mg protein, respectively. In addition, the “Cell viability, mean±SD” value with RAW 264.7 (n = 3, SD) worked out at 87.58%. Further, the Cell viability is 92.44% in the series on RAW 264.7 (replicate 1), 89.27% with RAW 264.7 (replicate 2) and 81.01% in the series on RAW 264.7 (replicate 3).
On to “KFNEVVYFL [P15, synthesized peptide identified from jellyfish fraction PUR20C]”, for which, in series [1] (mean ± SD, n = 3), the “ABTS, mean±SD” value was 131.66±1.15^B TE/mg protein. Moreover, the values for the ABTS in series [1] (replicate 1), in series [1] (replicate 2) and in series [1] (replicate 3) were 132.32 TE/mg protein, 130.32 TE/mg protein and 132.32 TE/mg protein, respectively. Besides, the “Cell viability, mean±SD” value in the series on RAW 264.7 (n = 3, SD) amounted to 87.22%. Further, the Cell viability in the series with RAW 264.7 (replicate 1) is 87.87%; in the series on RAW 264.7 (replicate 2), 85.58%; in the series with RAW 264.7 (replicate 3), 88.22%.
In the case of “LGAEGRSP [P13, synthesized peptide identified from jellyfish fraction PUR20C]”, in series [1] (mean ± SD, n = 3), the “ABTS, mean±SD” value is 6.51±0.87^H TE/mg protein. For the same sequence, the ABTS is listed as 5.91 TE/mg protein in series [1] (replicate 1), 6.11 TE/mg protein in series [1] (replicate 2) and 7.51 TE/mg protein in series [1] (replicate 3). For the same sequence, the “Cell viability, mean±SD” value in the series on RAW 264.7 (n = 3, SD) is reported as 82.77±1.53%. For the same sequence, the Cell viability with RAW 264.7 (replicate 1) worked out at 81.72%; in the series with RAW 264.7 (replicate 2) it was 82.07%; in the series with RAW 264.7 (replicate 3), 84.53%.
Take “LNIPKPKLNLL [P11, synthesized peptide identified from jellyfish fraction PUR20C]”: in series [1] (mean ± SD, n = 3), the “ABTS, mean±SD” value came out at 3.91 TE/mg protein. The ABTS in series [1] (replicate 1) is 4.11 TE/mg protein; in series [1] (replicate 2), 3.71 TE/mg protein; in series [1] (replicate 3), 3.91 TE/mg protein. The “Cell viability, mean±SD” value with RAW 264.7 (n = 3, SD) amounted to 84.71%. The figures for the Cell viability in the series on RAW 264.7 (replicate 1), in the series with RAW 264.7 (replicate 2) and with RAW 264.7 (replicate 3) were 84.53%, 85.41% and 84.18%, respectively.
“MVVACVLPEA [P16, synthesized peptide identified from jellyfish fraction PUR20C]”: in series [1] (mean ± SD, n = 3), the “ABTS, mean±SD” value is 121.31±0.87^D TE/mg protein. For the same sequence, the ABTS in series [1] (replicate 1) is recorded as 121.71 TE/mg protein; in series [1] (replicate 2), 120.30 TE/mg protein; in series [1] (replicate 3) it was 121.91 TE/mg protein. Further, the “Cell viability, mean±SD” value with RAW 264.7 (n = 3) was “without cytotoxic effects”. The Cell viability was found to be 81.01% with RAW 264.7 (replicate 1), 81.37% with RAW 264.7 (replicate 2) and 81.19% in the series on RAW 264.7 (replicate 3).
Consider “NQKAMQELNE [P1, synthesized peptide identified from jellyfish fraction PUR20C]”, for which, in series [1] (mean ± SD, n = 3), the “ABTS, mean±SD” value came out at 4.44 TE/mg protein. Also, the ABTS in series [1] (replicate 1) was 4.91 TE/mg protein; in series [1] (replicate 2), 4.11 TE/mg protein; in series [1] (replicate 3) it was 4.31 TE/mg protein. Also, the “Cell viability, mean±SD” value in the series with RAW 264.7 (n = 3, SD) amounted to 85.94%. The Cell viability was found to be 88.04% in the series on RAW 264.7 (replicate 1), 85.76% with RAW 264.7 (replicate 2) and 84.00% with RAW 264.7 (replicate 3).
Consider “PFTMYFLL [P14, synthesized peptide identified from jellyfish fraction PUR20C]”, for which the “ABTS, mean±SD” value in series [1] (mean ± SD, n = 3) is given as 119.57±1.33^E TE/mg protein. The ABTS in series [1] (replicate 1) is recorded as 118.70 TE/mg protein; in series [1] (replicate 2) it was 118.90 TE/mg protein; in series [1] (replicate 3), 121.11 TE/mg protein. Moreover, the “Cell viability, mean±SD” value in the series on RAW 264.7 (n = 3, SD) is 90.09±2.78^B %. Moreover, the Cell viability is given as 87.69% with RAW 264.7 (replicate 1), 89.45% in the series on RAW 264.7 (replicate 2) and 93.14% in the series with RAW 264.7 (replicate 3).
Turning to “PMETDDQPNN [P17, synthesized peptide identified from jellyfish fraction PUR20C]”, the “ABTS, mean±SD” value in series [1] (mean ± SD, n = 3) came to 4.64 TE/mg protein. For the same sequence, the ABTS is 4.11 TE/mg protein in series [1] (replicate 1), 4.11 TE/mg protein in series [1] (replicate 2) and 5.71 TE/mg protein in series [1] (replicate 3). In addition, the “Cell viability, mean±SD” value in the series with RAW 264.7 (n = 3, SD) is given as 83.65%. The Cell viability worked out at 83.47% in the series on RAW 264.7 (replicate 1), 83.83% in the series with RAW 264.7 (replicate 2) and 83.65% in the series with RAW 264.7 (replicate 3).
Regarding “RARVVPMY [P6, synthesized peptide identified from jellyfish fraction PUR20C]”, the “ABTS radical scavenging activity (TEAC)” value in series [1] (10 µL sample + 190 µL ABTS solution, 7 min dark, 734 nm, Trolox standard curve, mean ± SD, n = 3) is “highest activity”. The “ABTS, mean±SD” value in series [1] (mean ± SD, n = 3) is given as 139.87±0.50^A TE/mg protein. The values for the ABTS in series [1] (replicate 1), in series [1] (replicate 2) and in series [1] (replicate 3) were 139.34 TE/mg protein, 139.94 TE/mg protein and 140.34 TE/mg protein, respectively. For the same sequence, in the series on RAW 264.7 (n = 3, SD), the “Cell viability, mean±SD” value amounted to 85.47%. The Cell viability with RAW 264.7 (replicate 1) is 92.97%; in the series with RAW 264.7 (replicate 2), 82.77%; in the series on RAW 264.7 (replicate 3) it was 80.66%.
Consider “RPLAKIIP [P8, synthesized peptide identified from jellyfish fraction PUR20C]”, for which, in series [1] (mean ± SD, n = 3), the “ABTS, mean±SD” value is on record as 3.11 TE/mg protein. In addition, the ABTS in series [1] (replicate 1) is given as 2.51 TE/mg protein; in series [1] (replicate 2), 3.31 TE/mg protein; in series [1] (replicate 3) it was 3.51 TE/mg protein. The “Cell viability, mean±SD” value with RAW 264.7 (n = 3, SD) was determined as 83.71%. The Cell viability was 84.35% in the series with RAW 264.7 (replicate 1), 85.23% with RAW 264.7 (replicate 2) and 81.54% in the series with RAW 264.7 (replicate 3).

The record behind these values is article PMC11813147, “Bioactivity assessment of peptides derived from salted jellyfish (Rhopilema hispidum) byproducts” (PLOS ONE, 2025).
